Laboratory results reported in US20160009752A1, “[…]-OXIMINO-AMINOALKYLETHERS AND PROCESS FOR PREPARATION THEREOF, USEFUL AS ANTIDIABETIC AND […] AGENTS” (COUNCIL OF SCIENTIFIC & INDUSTRIAL RESEARCH, priority 2013, published 2016).

Tested on: Triton-induced hyperlipidemic rat model
Assay: Antidyslipidaemic activity in Triton-induced hyperlipidemic rat model
Format: in vivo
Settings: summary of Tables 1-2
Method: Male charles foster rats weighing around 200 to 225 g were divided into control, dyslipidemic and dyslipidemic plus drug treated groups containing six animals in each group. Dyslipidemia was induced by administration of triton WR-1339 (200 mg/kg intraperitoneally). All animals were maintained on a special pellet diet and water ad libitum. Test compounds and standard drug (Gemfibrozil) were macerated in 0.2% aqueous gum acacia. The fine suspension of test compounds and standard drug were fed orally to the respective groups at the dose of 100 mg/kg simultaneously with triton WR-1339 in drug treated group. The animals of control group received the same amount of gum acacia by similar route of administration. […]
Total plasma cholesterol was estimated using the kit and instructions as provided by the manufacturer Roche Diagnostics. […] The hydrogen peroxide combines with hydroxybenzoic acid (HBA) and 4-aminoantipyrine (4-AAA) in the presence of peroxidase (POD) to form a red chromophore (quinoneimine) which is quantitated at 500-505 nm. […]
Total plasma triglycerides were estimated using the kit and instructions as provided by the manufacture i.e. Roche Diagnostics. […] In the presence of peroxidase, hydrogen peroxide oxidatively couples with 4-aminoantipyrine and 4-chlorophenol to produce red chromophore quinonimine which is quantitated at 500-505 nm. […]

| Structure (SMILES) | antidyslipidemic / antidiabetic activity, summary in words |
| --- | --- |
| CCCCO/N=C(/C)C1=CC[C@H]2[C@@H]3CC=C4C[C@@H](O)CC[C@]4(C)[C@H]3CC[C@]12C [Compound 10a, 3β-Hydroxy-pregna-5,16-dien-20-one-O-n-butyl-oxime] | mainly antidyslipidemic activity |
| C/C(=N/OCc1ccccc1)C1=CC[C@H]2[C@@H]3CC=C4C[C@@H](O)CC[C@]4(C)[C@H]3CC[C@]12C [Compound 10b, 3β-Hydroxy-pregna-5,16-dien-20-one-O-benzyl-oxime] | mainly antidyslipidemic activity |
